pIC50: −log10 of the molar value. Values joined by “and” are separate entries in the source; they are usually repeats but may differ in a detail not shown here. Equal values may be shown once.

The values below come from patent US10889553B2, “Asymmetric triazole benzamide derivatives and the compositions and methods of treatment regarding the same” (NysnoBio Ireland DAC, priority 2017, dated 2021).

For one assay, the target named is T1, Parkin ligase (Homo sapiens, UniProt O60260).
T1 sequence (O60260 1-465): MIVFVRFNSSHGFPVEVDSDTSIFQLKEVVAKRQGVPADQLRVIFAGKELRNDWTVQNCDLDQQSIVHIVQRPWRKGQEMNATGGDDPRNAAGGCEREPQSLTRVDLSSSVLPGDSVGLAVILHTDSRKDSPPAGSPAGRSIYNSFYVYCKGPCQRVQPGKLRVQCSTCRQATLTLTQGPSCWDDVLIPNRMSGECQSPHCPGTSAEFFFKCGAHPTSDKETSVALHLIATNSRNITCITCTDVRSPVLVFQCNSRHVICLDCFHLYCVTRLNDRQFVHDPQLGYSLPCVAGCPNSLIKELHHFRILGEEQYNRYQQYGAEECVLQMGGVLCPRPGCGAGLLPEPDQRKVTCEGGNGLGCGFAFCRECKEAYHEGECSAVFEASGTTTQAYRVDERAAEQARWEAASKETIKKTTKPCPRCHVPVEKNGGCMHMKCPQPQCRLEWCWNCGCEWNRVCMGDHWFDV
Put plainly: Activity-Based Probe Assay using Ubiquitin vinyl sulfone probe (TR-FRET). Format: biochemical. Particulars: heat activated Parkin, HA-Ub-VS probe, activation EC50; read-out: Probe Assay EC50 (μM) [Example 2]. The procedure: An Ubiquitin vinyl sulfone probe can be used that irreversibly binds to the active site cysteine of Parkin ligase. Covalent attachment of the probe to the Parkin can be monitored by TR-FRET. Candidate activator compounds can be identified by increasing the activity of Parkin ligase due to an increase in TR-FRET signal. Screening for activating compounds can be distinguished from the controls as follows: 100% activation signal=Heat activated Parkin+100 nM control activator in DMSO. 0% activation signal=Heat activated Parkin+DMSO only. Parkin activators can be identified by an increase of the 0% activation signal TR-FRET signal. Assay Conditions: Materials: • Assay Plate: White 384 well plate (Corning 3572) • Enzyme: Parkin-His tagged 203 μM (10.5 mg/ml) • Probe: Ubiquitin vinyl-sulfone (HA-Ub-VS Boston Biochem U-212) • DMSO: DMSO (Sigma cat #D4540-100ML) • Reaction Buffer: 50 mM HEPES (pH 8.5), 150 mM NaCl, 0.01% Tween 20, 0.1% BSA • Detection Buffer: 50 mM HEPES (pH 8.5), 150 mM NaCl, 0.01% Tween 20, 0.1% BSA, 800 mM KF • Detection Reagent A: 2.6 nM Anti-6HIS-Eu cryptate and 40 nM Anti-HA-XL665 in detection buffer • Eu cryptate: Anti-6HIS-Eu cryptate (CisBio 61HISKLA) • XL665: Anti-HA-XL665 (CisBio 610HAXLA) Enzyme Reaction (15 Min Pre Incubation Parkin with Activator Only) • Parkin: 40 nM • HA-Ub-VS Probe: 70 nM • Activator/DMSO: 2× Activator/2% DMSO Reaction time: 60 minutes Temperature: 22° C. Total volume: 10 μl reaction Detection Reaction Take […] of Enzyme Reaction above and add 10 μl detection Reagent A under the following conditions: • Reaction time: 60 minutes • Temperature: 22° C. • Total volume: 20 μl
Assay procedure (Using HP D-300 compound dispenser and Bravo for the operation):
1) Heat activate Parkin in reaction buffer (500 μl/1.5 ml tube: Eppendorf Thermomixer 5 minutes, 400 rpm at 58° C. and put on ice until needed).
2) Load assay plate wells with 4.8 μl 84.5 nM Parkin in reaction buffer by use of Bravo.
3) Deliver 0.2 μl 200× activator candidates in DMSO by use of HP D-300 compound dispenser. Highest 200× concentration=[…] and then twofold dilutions.
4) Spin 1000 rpm, 2 minutes, at room temp.
5) Incubate plate for 15 minutes at room temp.
6) Add 5 μl 140 nM HA-Ub-VS Probe in reaction buffer by use of Bravo.
7) Spin 1000 rpm, 2 minutes, at room temp.
8) Incubate plate for 60 minutes at room temp.
9) Add 10 μl 2.6 nM Anti-6HIS-Eu cryptate and 40 nM […] in detection buffer.
10) Spin 1000 rpm, 2 minutes, at room temp.
11) Incubate plate for 60 minutes at room temp.
12) Read plates on Perkin Elmer Envision instrument with the following parameters:
LANCE dual laser protocol loaded into the Envision® software
Top Mirror: LANCE/DELFIA Duel/Bias (Bar code 446)
Emission Filter: APC 665 EM (Bar code 205)
2nd Emission Filter: Europium 615 EM (Bar code 203)
Read 655 nm (channel 1) and 615 nm (channel 2) wavelengths on Envision®
Data Analysis: The Data can be read in CSV files. There are two tables in those CSV files, which are the values of 655 nm (channel 1) and 615 nm (channel 2) wavelengths respectively. The data is converted to an HTRF Ratio=(Channel 1/Channel 2)*10,000
The average of all the 0 μM controls (DMSO only)=BKGD (Background—0% activation). Subtract BKGD from each HTRF Ratio value=HTRF−BKGD. The average of all the […] 100 nM control activator in DMSO controls=Max (100% activation). The following equation is then used to calculate % Activation for each well/candidate as follows: % Activation=(HTRF−BKGD/Max)*100.
Graphpad Prism was used with Transform X values: X=Log(X) and nonlinear regression (dose-response-stimulation): Log(agonist) vs Response−variable slope (four parameters) with constrains set to Bottom=0 and Top=100.
The Activity-Based Probe Assay was performed with various compounds in Tables 1, 2, 3A and 3B.
For orientation: TR-FRET usually uses a lanthanide donor and a delayed reading to cut background.

Another assay relates to TOV-21G (ovarian). As to the kind of experiment: Cancer cell proliferation assay (acid phosphatase). It is filed as cell-based. As to conditions: Homo sapiens, TOV21G, 72 h, Table 6A; 72 hrs; read-out: TOV-21G IC50. On the procedure:
Measurement of the inhibitive effect of compounds on cancer cell proliferation was performed. Various cell lines were tested, including HCT-116 (colon); A549 (lung); TOV-21G (ovarian); Calu-6 (lung); and LS-174T (colon); and cell lines H1703 (Lung) and SKOV3 (ovarian); JEKO-1 (lymophoma); TOV-112D (ovarian) are tested. The assays were performed under the following conditions: Cells are harvested at a concentration of 4×10^4 cells/ml in media. Volumes of 100 μl/well of these cell suspensions were added to a 96 well plate using a multichannel pipette. Plates were gently agitated to ensure an even dispersion of cells over a given plate. Cells were then incubated at 37° C., 5% CO2 overnight. Following this, 100 μl of compound at varying concentrations was added to wells in triplicate. Control wells are those with 100 μl media containing 0.33% DMSO added to cell suspension (this is the equivalent volume of DMSO found in the highest concentration of drug). Plates were then gently agitated, as above, and incubated at 37° C., 5% CO2 for 72 hrs (control wells have reached 80-90% confluency). Assessment of cell proliferation in the presence of the compound was determined by the acid phosphatase assay.
Following the incubation period of 72 hrs, media was removed from the plates. Each well on the plate was washed twice with 100 μl PBS. This was then removed and 100 μl of freshly prepared phosphatase substrate (10 mM p-nitrophenol phosphate in 0.1M sodium acetate, 0.1% triton X-100, pH 5.5) was added to each well. The plates were then incubated in the dark at 37° C. for 2 hours. Colour development was monitored during this time. The enzymatic reaction was stopped by the addition of 50 μl of 1N NaOH. The plate was read in a dual beam plate reader at 405 nm with a reference wavelength of 620 nm. The absorbance reading of the latter is subtracted from the former, and the effect of the drug on cell proliferation was then measured as a percentage against the control cells (DMSO), which is taken as 0% inhibition.

The term EC50 denotes the midpoint of the concentration-response curve. The pIC50 is the IC50 on a negative log10 scale, so that one unit is a factor of ten. Turning to `Cc1ccccc1C(=O)Nc1nc(NC(=O)[C@@H]2C[C@H](F)CN2)nn1-c1ccccc1` [Compound 3], on Parkin ligase, the EC50 is 16 µM and > 100 µM. Further, in the assay on TOV-21G (ovarian), the pIC50 was 5.62. Take `Cc1ccccc1C(=O)Nc1nc(NC(=O)c2ccncc2)nn1-c1ccc(Cl)cc1` [Compound 92]: the EC50 on Parkin ligase was 2 µM. For `COc1cccc(CNc2nc(NC(=O)c3ccccc3C)n(-c3ccc(OC(F)(F)F)cc3)n2)c1` [Compound 110], on Parkin ligase, the EC50 is 2 µM.

Regarding `Cc1ccccc1C(=O)Nc1nc(NC(=O)c2ccncc2)nn1-c1ccc(OC(F)(F)F)cc1` [Compound 80], on Parkin ligase, the EC50 came out at 3 µM. As to `c1ccc(-n2nc(NCc3ccccn3)nc2NCc2ccccn2)cc1` [Compound 144], at Parkin ligase, the EC50 was more than 100 µM. On the same count and under the same terms, in the case of `Cc1ccccc1C(=O)Nc1nc(NC(=O)c2c(F)cccc2F)nn1-c1ccccc1` [Compound 119] it was 2 µM; in that of `O=C(Nc1nc(NC(=O)c2c(F)c(F)c(F)c(F)c2F)n(-c2ccccc2)n1)c1ccccc1` [Compound 55], 12 µM; in that of `Cc1ccccc1C(=O)Nc1nc(NC(=O)c2ccccc2C)n(-c2ccc(N3CCNCC3)cc2)n1` [Compound 57], more than 100 µM.

Regarding `Cc1ccccc1C(=O)Nc1nc(NC(=O)[C@@H]2C[C@@H](F)CN2)nn1-c1ccccc1` [Compound 4], the EC50 at Parkin ligase was 38 µM and 24 µM. As to `Cc1ccccc1C(=O)Nc1nc(NC(=O)c2ccccc2C)n(-c2ccc3c(c2)CCO3)n1` [Compound 1], the EC50 on Parkin ligase is 52 µM and > 100 µM.

Consider `Cc1cnccc1C(=O)Nc1nc(NC(=O)c2ccncc2C)n(-c2ccccc2)n1` [Compound 99], for which the EC50 at Parkin ligase was 13 µM.

As to `c1ccc(CCNc2nc(NCCc3ccccc3)n(-c3ccccc3)n2)cc1` [Compound 143], the EC50 on Parkin ligase is more than 100 µM.

For `Cc1ccccc1C(=O)Nc1nc(NC(=O)C2CCN(CCC#N)CC2)nn1-c1ccccc1` [Compound 45], at Parkin ligase, the EC50 was more than 100 µM.

In the case of `c1ccc(CNc2nc(NCc3ccccc3)n(-c3ccccc3)n2)cc1` [Compound 138], at Parkin ligase, the EC50 is more than 100 µM.

`Cc1ccccc1C(=O)Nc1nc(NC(=O)c2ccccc2C)n(-c2ccc(N3CCN(C)CC3)cc2)n1` [Compound 68]: the EC50 on Parkin ligase was 24 µM. Consider `Cc1ccccc1C(=O)Nc1nc(N[C@H](C)c2ccccc2)nn1-c1ccc(OC(F)(F)F)cc1` [Compound 118], for which the EC50 on Parkin ligase was 1 µM. Still for that read-out and setting: in the case of `Cc1ccccc1C(=O)Nc1nc(NC(=O)c2ccccc2C)n(-c2cnn(C)c2)n1` [Compound 47] it was 16 µM. With `Cc1ccccc1C(=O)Nc1nc(NC(=O)c2cccnc2)nn1-c1ccc(C(F)(F)F)cc1` [Compound 94], the concentration for a half-maximal effect (EC50) on Parkin ligase is 4 µM. Same read-out and setting: under `O=C(Nc1nc(NC(=O)c2ccnc(O)c2)n(-c2ccccc2)n1)c1ccnc(O)c1` [Compound 96] stands 11 µM and 8 µM; under `Cc1ccccc1C(=O)Nc1nc(NC(=O)c2cccc(N=[N+]=[N-])c2)n(-c2ccc(OC(F)(F)F)cc2)n1` [Compound 79], 1 µM. The same measure, in the same setting: in the case of `Cc1ccccc1C(=O)Nc1nc(NCCc2ccccc2)nn1-c1ccccc1` [Compound 91] it was 2 µM; in that of `Cc1c(C(=O)Nc2nc(NC(=O)c3ccnc(F)c3C)n(-c3ccccc3)n2)ccnc1F` [Compound 98], 5 µM; in that of `Cc1ccccc1C(=O)Nc1nc(-c2ccc(F)cn2)nn1-c1ccccc1` [Compound 50], more than 100 µM.

As to `Cc1cncc(F)c1C(=O)Nc1nc(NC(=O)c2c(C)cncc2F)n(-c2ccccc2)n1` [Compound 93], at Parkin ligase, the EC50 is more than 100 µM. For the compound `Cc1ccccc1C(=O)Nc1nc(NC(=O)C2CCCCN2)nn1-c1ccccc1` (centres unmarked) [Compound 51], the EC50 at Parkin ligase worked out at 84 µM.

Consider `Cc1ccccc1C(=O)Nc1nc(NCc2ccccc2)nn1-c1ccccc1` [Compound 84], for which, at Parkin ligase, the EC50 was 4 µM. `Cc1ccccc1C(=O)N(C(=O)c1ccccc1)c1nc(N)n(-c2ccccc2)n1` [Compound 148]: the EC50 on Parkin ligase is more than 100 µM. Turning to `Cc1ccccc1C(=O)Nc1nc(N[C@H](C)c2ccccc2)nn1-c1ccccc1` [Compound 114], at Parkin ligase, the EC50 came to 2 µM.

In the case of `O=C(Nc1nc(NC(=O)C2CCCNC2)n(-c2ccccc2)n1)C1CCCNC1` (centres unmarked) [Compound 56], the half-maximal effective concentration (EC50) at Parkin ligase was more than 100 µM. Still for that read-out and setting: under `C#Cc1ccc(C(=O)Nc2nc(NC(=O)c3cccc(N=[N+]=[N-])c3)nn2-c2ccccc2)cc1` [Compound 48] stands 2 µM; under `Cc1ccccc1C(=O)Nc1nc(NC(=O)c2ccc(N=[N+]=N)cc2)n(-c2ccc(OC(F)(F)F)cc2)n1` [Compound 74], 0.9 µM; under `O=C(Nc1nc(NC(=O)c2cccnc2)n(-c2cccc(F)c2)n1)c1cccnc1` [Compound 72], 2 µM. The same measure, in the same setting: in the case of `Cc1ccccc1C(=O)Nc1nc(-c2ncccc2F)nn1-c1ccccc1` [Compound 136] it was more than 100 µM.

Regarding `Cc1ccccc1C(=O)Nc1nc(NC(=O)c2ccccc2C)n(-c2ccc(N3CCOCC3)cc2)n1` [Compound 54], the EC50 at Parkin ligase is 10 µM.
